In one assay the target is T1, Gal2 (Saccharomyces cerevisiae, UniProt P13181).
T1 construct: full-length, pRS313-GAL2 (HXT7 promoter) in S. cerevisiae DS68625 (hxt1-7, gal2 deleted)
T1 sequence (P13181 1-574): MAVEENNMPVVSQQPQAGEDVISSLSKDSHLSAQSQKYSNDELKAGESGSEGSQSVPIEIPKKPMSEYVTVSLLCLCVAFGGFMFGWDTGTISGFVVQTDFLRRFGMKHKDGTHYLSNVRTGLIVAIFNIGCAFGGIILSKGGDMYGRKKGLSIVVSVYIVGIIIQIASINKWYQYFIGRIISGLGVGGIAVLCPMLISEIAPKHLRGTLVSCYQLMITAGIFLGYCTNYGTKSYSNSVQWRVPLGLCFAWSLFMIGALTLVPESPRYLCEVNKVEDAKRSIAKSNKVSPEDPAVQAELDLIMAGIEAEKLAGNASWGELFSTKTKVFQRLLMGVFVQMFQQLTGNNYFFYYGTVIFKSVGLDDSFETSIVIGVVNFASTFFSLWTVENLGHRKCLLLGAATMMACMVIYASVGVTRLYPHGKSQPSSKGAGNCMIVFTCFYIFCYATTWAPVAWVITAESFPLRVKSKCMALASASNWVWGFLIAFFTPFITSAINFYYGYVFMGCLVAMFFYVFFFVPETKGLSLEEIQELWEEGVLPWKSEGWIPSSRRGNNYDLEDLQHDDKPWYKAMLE
The assay can be described thus: inhibition of […]-L-arabinose uptake in transporter-deleted yeast cells. The format is cell-based.

In a further assay the target is T2, PcAraT (Penicillium rubens, UniProt B6HE12).
T2 construct: gene Pc20g01790; full-length ORF, codon-pair optimized synthetic gene, pRS313-PcaraT (HXT7 promoter) in S. cerevisiae DS68625 (hxt1-7, gal2 deleted)
T2 sequence (B6HE12 1-511): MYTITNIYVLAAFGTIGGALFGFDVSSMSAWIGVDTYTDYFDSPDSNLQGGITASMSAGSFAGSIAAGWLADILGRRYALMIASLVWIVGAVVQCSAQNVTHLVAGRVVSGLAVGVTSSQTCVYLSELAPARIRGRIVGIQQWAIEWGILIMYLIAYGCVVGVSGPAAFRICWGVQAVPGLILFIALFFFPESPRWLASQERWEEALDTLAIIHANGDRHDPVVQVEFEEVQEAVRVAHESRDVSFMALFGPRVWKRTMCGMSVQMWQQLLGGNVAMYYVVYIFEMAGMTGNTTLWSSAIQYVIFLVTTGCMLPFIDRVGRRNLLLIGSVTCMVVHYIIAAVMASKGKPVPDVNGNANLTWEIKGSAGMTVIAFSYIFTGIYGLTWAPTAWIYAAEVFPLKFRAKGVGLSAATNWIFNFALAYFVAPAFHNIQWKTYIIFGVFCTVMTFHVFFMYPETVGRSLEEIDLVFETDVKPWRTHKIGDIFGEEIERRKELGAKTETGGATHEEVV
The description is as above. It counts as cell-based.

One may read the inhibition as the relative decrease from the control value, in per cent. A lower inhibition goes with little suppression.

In the case of `OC[C@H]1OC(O)[C@H](O)[C@@H](O)[C@@H]1O` (stereo partly drawn) [D-glucose], the inhibition at 100000 µM on Gal2 turned out to be 85%; at PcAraT, 63%.

Consider `OC1OC[C@@H](O)[C@H](O)[C@H]1O` (stereo partly drawn) [D-xylose], for which the inhibition at 100000 µM is 29% at Gal2 and 22% on PcAraT.

Values taken from article PMC5848512, “The Penicillium chrysogenum transporter PcAraT enables high-affinity, glucose-insensitive L-arabinose transport in Saccharomyces cerevisiae” (Biotechnology for Biofuels, 2018).
